Source: ChEMBL document CHEMBL1201862, “PubChem BioAssay data set” (2004)
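Interpolation was linear, between the two tested concentrations surrounding the appropriate level; five concentrations were tested over 48 hours in 96-well plates. GI50 = concentration required for 50% inhibition of growth.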 Active and inactive are the calls of the source. Rule as the data show it: active = GI50 up to about 1.1 µM and inactive = higher.

What was measured:
Experiment in all cases: inhibition of tumour cell growth, NCI panel, 48 h
HCT-15 = system: HCT-15
DMS-114 = system: DMS-114
COLO 205 = system: COLO 205
CAKI-1 = system: CAKI-1
NCI-H522 = system: NCI-H522
LOX IMVI = system: LOX IMVI
A549 = system: A549
M19-MEL = system: M19-MEL
NCI-H460 = system: NCI-H460
786-0 = system: 786-0
NCI-H23 = system: NCI-H23
OVCAR-8 = system: OVCAR-8
U-251 = system: U-251
SK-MEL-5 = system: SK-MEL-5
EKVX = system: EKVX
SK-MEL-28 = system: SK-MEL-28
SF-268 = system: SF-268
SW-620 = system: SW-620
XF498 = system: XF498
DLD-1 = system: DLD-1
SNB-19 = system: SNB-19
UO-31 = system: UO-31
RXF 393 = system: RXF 393
DMS-273 = system: DMS-273
SF-539 = system: SF-539
HOP-18 = system: HOP-18
HOP-92 = system: HOP-92
HCT-116 = system: HCT-116
KM-20L2 = system: KM-20L2
M14 = system: M14
A498 = system: A498
HOP-62 = system: HOP-62
IGROV-1 = system: IGROV-1
UACC-62 = system: UACC-62
TK-10 = system: TK-10
HT-29 = system: HT-29
SK-OV-3 = system: SK-OV-3
RPMI-8226 = system: RPMI-8226
CCRF-CEM = system: CCRF-CEM
MOLT-4 = system: MOLT-4
HL-60 = system: HL-60
SF-295 = system: SF-295
UACC-257 = system: UACC-257
SNB-75 = system: SNB-75
Malme-3M = system: Malme-3M
SR = system: SR
SN12C = system: SN12C
OVCAR-3 = system: OVCAR-3
LXFL 529 = system: LXFL 529
KM12 = system: KM12
HCC 2998 = system: HCC 2998
OVCAR-5 = system: OVCAR-5
ACHN = system: ACHN
OVCAR-4 = system: OVCAR-4
K562 = system: K562
SNB-78 = system: SNB-78
NCI-H226 = system: NCI-H226

Structure (SMILES): Cc1nc2ccccc2c(=O)n1/N=C(\N=N\c1ccccc1Cl)c1ccccc1
- GI50 (HCT-15): 22.2 µM
- GI50 (DMS-114): 15.5 µM (inactive)
- GI50 (COLO 205): 21.5 µM (inactive)
- GI50 (CAKI-1): 23.4 µM (inactive)
- GI50 (NCI-H522): 19.1 µM (inactive)
- GI50 (LOX IMVI): 24.8 µM (inactive)
- GI50 (A549): 48.6 µM (inactive)
- GI50 (M19-MEL): 25.8 µM (inactive)
- GI50 (NCI-H460): 23.9 µM (inactive)
- GI50 (786-0): 19 µM (inactive)
- GI50 (NCI-H23): 44.5 µM (inactive)
- GI50 (OVCAR-8): 31.3 µM (inactive)
- GI50 (U-251): 26.7 µM (inactive)
- GI50 (SK-MEL-5): 19.4 µM (inactive)
- GI50 (EKVX): 20.8 µM (inactive)
- GI50 (SK-MEL-28): 41.5 µM (inactive)
- GI50 (SF-268): 46.3 µM (inactive)
- GI50 (SW-620): 22.7 µM (inactive)
- GI50 (XF498): 21.1 µM (inactive)
- GI50 (DLD-1): 29.1 µM (inactive)
- GI50 (SNB-19): 74.1 µM (inactive)
- GI50 (UO-31): 28 µM (inactive)
- GI50 (RXF 393): 23 µM (inactive)
- GI50 (DMS-273): 31.6 µM (inactive)
- GI50 (SF-539): 18.7 µM (inactive)
- GI50 (HOP-18): 27.5 µM (inactive)
- GI50 (HOP-92): 36.5 µM (inactive)
- GI50 (HCT-116): > 10 µM (inactive)
- GI50 (KM-20L2): 21.9 µM (inactive)
- GI50 (M14): 18.1 µM (inactive)
- GI50 (A498): 27.5 µM (inactive)
- GI50 (HOP-62): 19.1 µM (inactive)
- GI50 (IGROV-1): 19.4 µM (inactive)
- GI50 (UACC-62): 17.5 µM (inactive)
- GI50 (TK-10): 60.5 µM (inactive)
- GI50 (HT-29): 25.6 µM (inactive)
- GI50 (SK-OV-3): 31 µM (inactive)
- GI50 (RPMI-8226): 17 µM (inactive)
- GI50 (CCRF-CEM): 17.3 µM (inactive)
- GI50 (MOLT-4): > 10 µM (inactive)
- GI50 (HL-60): 15.3 µM (inactive)

Structure (SMILES): CC1=C2[C@H](c3ccccc3)C3C=CC2(c2ccccc23)N(C(=O)C(c2ccccc2)c2ccccc2)C1=O (stereo not given in full)
- GI50 (SF-295): > 100 µM (inactive)
- GI50 (HCT-15): > 100 µM
- GI50 (DMS-114): > 100 µM (inactive)
- GI50 (UACC-257): > 100 µM (inactive)
- GI50 (COLO 205): > 100 µM (inactive)
- GI50 (CAKI-1): > 100 µM (inactive)
- GI50 (LOX IMVI): > 100 µM (inactive)
- GI50 (A549): > 100 µM (inactive)
- GI50 (M19-MEL): > 100 µM (inactive)
- GI50 (NCI-H460): > 100 µM (inactive)
- GI50 (SNB-75): > 100 µM (inactive)
- GI50 (786-0): > 100 µM (inactive)
- GI50 (Malme-3M): > 100 µM (inactive)
- GI50 (NCI-H23): > 100 µM (inactive)
- GI50 (SR): > 100 µM (inactive)
- GI50 (OVCAR-8): > 100 µM (inactive)
- GI50 (U-251): > 100 µM (inactive)
- GI50 (SK-MEL-5): > 100 µM (inactive)
- GI50 (EKVX): > 100 µM (inactive)
- GI50 (SK-MEL-28): > 100 µM (inactive)
- GI50 (SF-268): > 100 µM (inactive)
- GI50 (SN12C): > 100 µM (inactive)
- GI50 (SW-620): > 100 µM (inactive)
- GI50 (XF498): > 100 µM (inactive)
- GI50 (DLD-1): > 100 µM (inactive)
- GI50 (SNB-19): > 100 µM (inactive)
- GI50 (UO-31): > 100 µM (inactive)
- GI50 (RXF 393): > 100 µM (inactive)
- GI50 (DMS-273): > 100 µM (inactive)
- GI50 (SF-539): > 100 µM (inactive)
- GI50 (HOP-18): > 100 µM (inactive)
- GI50 (OVCAR-3): > 100 µM (inactive)
- GI50 (HOP-92): > 100 µM (inactive)
- GI50 (HCT-116): > 100 µM (inactive)
- GI50 (LXFL 529): > 100 µM (inactive)
- GI50 (KM-20L2): > 100 µM (inactive)
- GI50 (M14): > 100 µM (inactive)
- GI50 (KM12): > 100 µM (inactive)
- GI50 (A498): > 100 µM (inactive)
- GI50 (HOP-62): > 100 µM (inactive)
- GI50 (IGROV-1): > 100 µM (inactive)
- GI50 (UACC-62): > 100 µM (inactive)
- GI50 (HCC 2998): > 100 µM (inactive)
- GI50 (OVCAR-5): > 100 µM (inactive)
- GI50 (ACHN): > 100 µM (inactive)
- GI50 (TK-10): > 100 µM (inactive)
- GI50 (OVCAR-4): > 100 µM (inactive)
- GI50 (HT-29): > 100 µM (inactive)
- GI50 (SK-OV-3): > 100 µM (inactive)
- GI50 (K562): > 100 µM (inactive)
- GI50 (CCRF-CEM): > 100 µM (inactive)
- GI50 (MOLT-4): > 100 µM (inactive)
- GI50 (HL-60): 41.3 µM (inactive)

Structure (SMILES): CC1(C)S[C@H](c2ccccc2C(=O)O)N[C@@H]1CC(=O)O
- GI50 (SF-295): > 100 µM (inactive)
- GI50 (HCT-15): > 100 µM
- GI50 (DMS-114): > 100 µM (inactive)
- GI50 (UACC-257): > 100 µM (inactive)
- GI50 (COLO 205): > 100 µM (inactive)
- GI50 (NCI-H522): > 100 µM (inactive)
- GI50 (LOX IMVI): > 100 µM (inactive)
- GI50 (A549): > 100 µM (inactive)
- GI50 (M19-MEL): > 100 µM (inactive)
- GI50 (NCI-H460): > 100 µM (inactive)
- GI50 (SNB-75): > 100 µM (inactive)
- GI50 (786-0): > 100 µM (inactive)
- GI50 (NCI-H23): > 100 µM (inactive)
- GI50 (SR): > 100 µM (inactive)
- GI50 (OVCAR-8): > 100 µM (inactive)
- GI50 (U-251): > 100 µM (inactive)
- GI50 (SK-MEL-5): > 100 µM (inactive)
- GI50 (EKVX): > 100 µM (inactive)
- GI50 (SK-MEL-28): > 100 µM (inactive)
- GI50 (SF-268): > 100 µM (inactive)
- GI50 (SN12C): > 100 µM (inactive)
- GI50 (SW-620): > 100 µM (inactive)
- GI50 (DLD-1): > 100 µM (inactive)
- GI50 (SNB-19): > 100 µM (inactive)
- GI50 (RXF 393): > 100 µM (inactive)
- GI50 (DMS-273): > 100 µM (inactive)
- GI50 (SF-539): > 100 µM (inactive)
- GI50 (HOP-18): > 100 µM (inactive)
- GI50 (HCT-116): > 100 µM (inactive)
- GI50 (LXFL 529): > 100 µM (inactive)
- GI50 (M14): > 100 µM (inactive)
- GI50 (KM12): > 100 µM (inactive)
- GI50 (A498): > 100 µM (inactive)
- GI50 (HOP-62): > 100 µM (inactive)
- GI50 (IGROV-1): > 100 µM (inactive)
- GI50 (UACC-62): > 100 µM (inactive)
- GI50 (ACHN): > 100 µM (inactive)
- GI50 (OVCAR-4): > 100 µM (inactive)
- GI50 (HT-29): > 100 µM (inactive)
- GI50 (RPMI-8226): > 100 µM (inactive)
- GI50 (K562): > 100 µM (inactive)
- GI50 (SNB-78): > 100 µM (inactive)
- GI50 (CCRF-CEM): > 100 µM (inactive)
- GI50 (NCI-H226): > 100 µM (inactive)
- GI50 (MOLT-4): > 100 µM (inactive)
- GI50 (HL-60): > 100 µM (inactive)
